Publication PMC11876671, “Investigating blood–brain barrier penetration and neurotoxicity of natural products for central nervous system drug development” (Scientific Reports, 2025)

Experiment: in vitro
Details: PAMPA, PAMPA-BBB Pe

Compared with `COC(=O)[C@@H]1[C@H]2C[C@H]3c4[nH]c5ccccc5c4CCN3C[C@@H]2CC[C@@H]1O` [YOHIMBINE], `COc1cc2c(cc1OC)[C@@H]1Cc3ccc(OC)c(OC)c3CN1CC2` [TETRAHYDROPALMATINE] is 3.7-fold higher in Papp: 42 ×10⁻⁶ cm/s for the first, 156 ×10⁻⁶ cm/s for the second.

`C=C(C)[C@@H]1CCC2=CCC[C@@H](C)[C@]2(C)C1` showed a Papp of 18 ×10⁻⁶ cm/s.

Same assay, conditions: PAMPA, PAMPA-BBB Pe(10^-6 cm/sec)

First: CC[C@]1(O)C[C@@H]2CN(CCc3c([nH]c4ccccc34)[C@@](C(=O)OC)(c3cc4c(cc3OC)N(C)[C@H]3[C@@](O)(C(=O)OC)[C@H](OC(C)=O)[C@]5(CC)C=CCN6CC[C@]43[C@@H]65)C2)C1 [VINBLASTINE]
Second: C/C(=C\C(=O)OCCCCCCCCC(=O)O)C[C@@H]1OC[C@H](C[C@@H]2O[C@H]2[C@@H](C)[C@H](C)O)[C@@H](O)[C@H]1O [MUPIROCIN]
The Papp of the first is higher: 5.7 ×10⁻⁶ cm/s for the first, < 1 ×10⁻⁶ cm/s for the second.

`C[n+]1cccc(C(=O)[O-])c1` [TRIGONELLINE] and `O=C(O)c1cccc(C(=O)O)n1` [D[…]] cannot be ordered by Papp: < 1 ×10⁻⁶ cm/s for the first, < 1 ×10⁻⁶ cm/s for the second.

With `Cn1cnc2c1c(=O)[nH]c(=O)n2C` [THEOBROMINE] the Papp was < 1 ×10⁻⁶ cm/s.

Same assay, conditions: PAMPA, PAMPA-BBB Pe(10^-6 cm/sec), Table S3: compounds exhibiting low PAMPA-BBB permeability

Going from `N[C@@H](Cc1cc(I)c(O)c(I)c1)C(=O)O` [L-DIIODOTYROSINE] to `NC(Cc1cc(O)c(O)cc1O)C(=O)O` (racemic) [2,4,5-TRIHYDROXY-DL-PHENYLALANINE], the Papp rises from < 1 ×10⁻⁶ cm/s to 9.3 ×10⁻⁶ cm/s.

`O=C(O[C@@H]1Cc2c(O)cc(O)cc2O[C@H]1c1cc(O)c(O)c(O)c1)c1cc(O)c(O)c(O)c1` [GALLOCATECHIN GALLATE, (-)-] and `O=C(O[C@@H]1Cc2c(O)cc(O)cc2O[C@@H]1c1ccc(O)c(O)c1)c1cc(O)c(O)c(O)c1` [EPICATECHIN GALLATE] cannot be ordered by Papp: < 1 ×10⁻⁶ cm/s for the first, < 1 ×10⁻⁶ cm/s for the second.

Compared with `O=C(O)Cc1c[nH]c2ccc(O)cc12` [HYDROXYIN[…]], `COc1ccc2[nH]cc(CCNC(C)=O)c2c1` [MELATONIN] is higher in Papp: < 1 ×10⁻⁶ cm/s for the first, 2.8 ×10⁻⁶ cm/s for the second.

Going from `OC[C@H]1O[C@@H](Oc2cc(O)cc(/C=C/c3ccc(O)cc3)c2)[C@H](O)[C@@H](O)[C@@H]1O` [POLYDATIN] to `O=c1cc(-c2ccc(O)cc2)oc2cc(O[C@H]3OC(CO)C(O)C(O)C3O)cc(O)c12` (stereo partly shown) [COSMOSIOSIDE], the Papp rises from < 1 ×10⁻⁶ cm/s to 1.6 ×10⁻⁶ cm/s.

First: Oc1ccc(-c2[o+]c3cc(O)cc(O)c3cc2O)cc1 [PELARGONIDIN]
Second: COc1cc(-c2[o+]c3cc(O)cc(O)c3cc2O)cc(OC)c1O [MALVIDIN]
The Papp of the first is lower: < 1 ×10⁻⁶ cm/s for the first, 1 ×10⁻⁶ cm/s for the second.

`O=C(/C=C/c1ccc(O)c(O)c1)O[C@@H]1C[C@@](OC(=O)/C=C/c2ccc(O)c(O)c2)(C(=O)O)C[C@@H](O)[C@@H]1O` [CYNARINE] and `O=C(/C=C/c1ccc(O)c(O)c1)c1ccc(O)cc1O` [BUTEIN] cannot be ordered by Papp: < 1 ×10⁻⁶ cm/s for the first, < 1 ×10⁻⁶ cm/s for the second.

`C[C@]1(OC(=O)/C=C/c2ccccc2)C[C@@H](O)[C@]2(O)C=CO[C@@H](O[C@@H]3O[C@H](CO)[C@@H](O)[C@H](O)[C@H]3O)[C@@H]21` [HARPAGOSIDE] and `O=C(OCC1=C[C@@H](O)[C@@H]2C=CO[C@@H](O[C@@H]3O[C@H](CO)[C@@H](O)[C@H](O)[C@H]3O)[C@H]12)c1ccc(O)cc1` [AGNUSIDE] cannot be ordered by Papp: < 1 ×10⁻⁶ cm/s for the first, < 1 ×10⁻⁶ cm/s for the second.

First: COC(=O)/C=C/C(C)=C/C=C/C(C)=C/C=C/C=C(C)/C=C/C=C(C)/C=C/C(=O)O [ISOBIXIN]
Second: C=C/C(C)=C/C/C=C(\C)CCC=C(C)C
The Papp of the first is higher: 4.2 ×10⁻⁶ cm/s for the first, < 1 ×10⁻⁶ cm/s for the second.

Going from `CNCC/C=C/c1cccnc1` [RIVANICLINE] to `O=C(C[C@H]1NCCC[C@@H]1O)Cn1cnc2ccccc2c1=O` [FEBRIFUGINE], the Papp falls from 7.1 ×10⁻⁶ cm/s to < 1 ×10⁻⁶ cm/s.

`CO[C@@H]1[C@H](O)C[C@@H](O[C@@H]2C[C@H](Oc3cc4cc5c(c(O)c4c(O)c3C)C(=O)[C@@H](O[C@H]3C[C@@H](O[C@H]4C[C@@H](O[C@H]6C[C@](C)(O)[C@@H](OC(C)=O)[C@H](C)O6)[C@H](O)[C@@H](C)O4)[C@H](O)[C@@H](C)O3)[C@H]([C@H](OC)C(=O)[C@@H](O)[C@@H](C)O)C5)O[C@H](C)[C@@H]2OC(C)=O)O[C@@H]1C` [CHROMOMYCIN A3] and `C[C@H]([C@H](O)CCC(C)(C)O)[C@H]1CC[C@@]2(O)C3=CC(=O)[C@@H]4C[C@@H](O)[C@@H](O)C[C@]4(C)[C@H]3CC[C@]12C` [ECDYSONE] cannot be ordered by Papp: < 1 ×10⁻⁶ cm/s for the first, < 1 ×10⁻⁶ cm/s for the second.

First: COc1cc(OC)c(C(C)=O)c(O)c1C [METHYLXANTHOXYLINE]
Second: COC(=O)c1ccc(O)c2nc3c(C=O)c(O)cc(O)c3nc12 [LOMOFUNGIN]
The Papp of the first is lower: < 1 ×10⁻⁶ cm/s for the first, 5.1 ×10⁻⁶ cm/s for the second.

`NC(=O)c1ncn([C@@H]2O[C@H](CO)[C@@H](O)[C@H]2O)c1N` [ACADESINE] and `CSC[C@H]1O[C@@H](n2cnc3c(N)ncnc32)[C@H](O)[C@@H]1O` [METHYLTHIOADENOSINE] cannot be ordered by Papp: < 1 ×10⁻⁶ cm/s for the first, < 1 ×10⁻⁶ cm/s for the second.

Going from `Cc1cc(O)c(C=O)c2c1C(=O)Oc1c(C)c(O)c3c(c1O2)C(O)OC3=O` (stereo not shown) [Norstictic acid] to `O=c1c(O)c(-c2cc(O)c(O)c(O)c2)oc2cc(O)ccc12` [ROBINETIN], the Papp falls from 2 ×10⁻⁶ cm/s to 1 ×10⁻⁶ cm/s (2-fold).

Compared with `NC1C=CC=C(C(=O)O)C1` (stereo not shown), `COc1ccc(O[C@@H]2O[C@H](CO)[C@H](O)[C@H](O)[C@H]2O)cc1` [4-METHOXYPHENYL .BETA.-D-GLUCOSIDE] is higher in Papp: < 1 ×10⁻⁶ cm/s for the first, 1.3 ×10⁻⁶ cm/s for the second.

For `COc1ccc(-c2coc3cc(O[C@@H]4O[C@H](CO)[C@@H](O)[C@H](O)[C@H]4O)ccc3c2=O)cc1` [ONONOSIDE], the Papp was < 1 ×10⁻⁶ cm/s.
